Source: publication PMC7797783, “Identification of Active Compounds From Yi Nationality Herbal Formula Wosi Influencing COX-2 and VCAM-1 Signaling” (Frontiers in Pharmacology, 2020)
Where “and” joins values, the source holds several entries; their conditions need not be identical. Identical values can stand only once.

Legend:
[1] = target: T1, COX-2 (Homo sapiens, UniProt P35354); assay: In vitro cyclooxygenase inhibition assay (colorimetric COX inhibitor screening kit, PGE2 synthesis), COX-2; assay type: biochemical; conditions: for IC50: duplicate determinations, 0.01 to 550 μM; for COX-2/COX-1 selectivity ratio: ratio of IC50 values (μM)
T1 construct: purchased Cayman Chemical Company 560131
T1 sequence (P35354 18-604): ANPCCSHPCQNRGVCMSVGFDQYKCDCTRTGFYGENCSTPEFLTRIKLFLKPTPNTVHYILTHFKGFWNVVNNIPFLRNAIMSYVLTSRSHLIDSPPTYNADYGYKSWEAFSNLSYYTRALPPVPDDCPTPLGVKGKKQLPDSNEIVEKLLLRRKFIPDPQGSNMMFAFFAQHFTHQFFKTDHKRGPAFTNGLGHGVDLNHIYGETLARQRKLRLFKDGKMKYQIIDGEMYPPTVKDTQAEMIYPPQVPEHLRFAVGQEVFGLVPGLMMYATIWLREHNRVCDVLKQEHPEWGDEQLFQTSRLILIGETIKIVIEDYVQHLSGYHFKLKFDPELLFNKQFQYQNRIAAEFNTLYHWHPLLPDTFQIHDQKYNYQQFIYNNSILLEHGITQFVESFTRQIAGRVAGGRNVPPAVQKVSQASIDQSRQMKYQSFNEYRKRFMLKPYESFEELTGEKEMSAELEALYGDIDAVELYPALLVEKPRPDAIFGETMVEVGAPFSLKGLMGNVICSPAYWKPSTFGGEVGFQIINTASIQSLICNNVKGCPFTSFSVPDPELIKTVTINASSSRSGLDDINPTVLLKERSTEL

[2] = target: T2, COX-1 (Ovis aries, UniProt P05979); assay: In vitro cyclooxygenase inhibition assay (colorimetric COX inhibitor screening kit, PGE2 synthesis), COX-1; assay type: biochemical; conditions: duplicate determinations; 0.01 to 550 μM
T2 construct: purchased Cayman Chemical Company 560131
T2 sequence (P05979 25-600): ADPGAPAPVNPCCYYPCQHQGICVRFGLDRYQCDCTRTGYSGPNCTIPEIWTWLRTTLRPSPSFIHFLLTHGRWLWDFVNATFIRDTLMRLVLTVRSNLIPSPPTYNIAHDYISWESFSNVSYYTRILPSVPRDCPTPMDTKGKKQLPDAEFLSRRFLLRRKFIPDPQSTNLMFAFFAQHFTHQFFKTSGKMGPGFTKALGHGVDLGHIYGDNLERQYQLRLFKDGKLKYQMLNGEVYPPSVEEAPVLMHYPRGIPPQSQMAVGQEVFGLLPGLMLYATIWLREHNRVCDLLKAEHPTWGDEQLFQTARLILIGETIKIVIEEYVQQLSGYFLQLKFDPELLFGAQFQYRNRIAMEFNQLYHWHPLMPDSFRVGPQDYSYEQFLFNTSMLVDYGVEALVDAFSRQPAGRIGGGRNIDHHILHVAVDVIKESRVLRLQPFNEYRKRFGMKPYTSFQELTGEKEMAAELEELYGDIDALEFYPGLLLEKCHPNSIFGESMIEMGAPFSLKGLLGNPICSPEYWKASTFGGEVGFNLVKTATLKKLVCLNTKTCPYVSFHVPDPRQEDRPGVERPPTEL

[3] = system: hyperuricemia rats; assay: Hyperuricemia rat model (adenine/dry yeast), uric acid in serum and urine; assay type: in vivo, Sprague-Dawley (SD) rats; conditions: oral, 5 days, Wosi 0.5, 1, 2 g/kg, vs model group
Protocol: The rats were divided into six groups, and each group comprised of 10 animals which were control, model, Benzbromarone (0.01 mg/kg), Wosi (0.5, 1, and 2 g/kg) groups. Briefly, 10% dry yeast solution of 1.25% adenine (10 ml/kg) was given orally administration for 15 consecutive days to induce the hyperuricemia in each animal except those of control groups. The solution of 0.5% CMC-Na was given to the control groups. On the 10th day, the Wosi and Benzbromarone were orally administered continuously 24 h 5 days. Normal saline was given to the control and model groups. Collecting 14th and 15th days of rat urine (24 h) and recording the volume. It was centrifuged at 3,500 g for 5 min to remove the precipitations. On the 15th day, rats were first anesthetized with pentobarbital sodium (i.p., 70 mg/kg body weight), 1 h after the final drug treatment. Then the blood sample was collected and centrifuged at 3000 g for 5 min to obtain the serum. Serum were kept under −20°C.
According to manufacturer’s instructions, using a standard diagnostic kit, was used in order to evaluate the concentration of uric acid concentration in serum and urine.

[4] = system: serum cytokines IL-6, IL-1β, IL-2, IL-10, IFN-γ; assay: Serum inflammatory cytokines (ELISA) in MSU-induced rats; assay type: in vivo, Sprague-Dawley (SD) rats; conditions: oral 7 days, Wosi 0.5, 1, 2 g/kg, colchicine 0.2 mg/kg
Protocol: (§1) Rats were divided as aforementioned. Wosi at three doses (0.5, 1, and 2 g/kg) were orally administration once daily for 7 days in Wosi groups. Meanwhile, colchicine was orally administration once daily for 7 days in colchicine groups. The injection of the MSU crystal was performed on the fifth day for each animal except those of control groups. 0.9% sterile saline was given to the control group. On the seventh day, rats were first anesthetized with pentobarbital sodium (i.p., 70 mg/kg body weight) at 30 min after the last dosing, Blood samples were taken from rat femoral artery with heparinized needles which were allowed to clot for 1 h at room temperature and centrifuged at 3,000 g for 10 min to obtain serum. Serum samples were stored at −20°C until the ELISA testing, then rats were sacrificed by femoral artery exsanguination. Meanwhile, the ankle joint surrounding tissues were collected for the immunohistochemical analyze and frozen at −80°C.
The levels of interleukin 6 (IL-6), interleukin 1 beta, interleukin 2 (IL-2), interleukin 10 (IL-10), and interferon gamma (IFN-γ) in the serum were measured using ELISA kits according to manufacturer’s instructions.

[5] = system: COX-2 and VCAM-1 protein expression; assay: Immunohistochemistry of COX-2 and VCAM-1 protein in ankle joint synovial tissue of MSU-induced rats; assay type: in vivo, Sprague-Dawley (SD) rats; conditions: 7 days, colchicine 0.2 mg/kg
Protocol: as §1
The method of immunohistochemical staining for the ankle joint was as following the previous studies. Briefly, the sections were deparaffinized and […] by xylene and ethanol. […] Finally, the sections were washed with TBS three times, and antibody binding was detected using 3,3′-diaminobenzidine tetrahydrochloride (DAB). […] Stained sections were dehydrated and then each section was analyzed by microscope and image output system.

[6] = system: cyclooxygenase-2; design: method as in Ringbom et al., 1998; conditions: ref Ringbom et al., 1998; cited from earlier work

## C[C@@H]1O[C@@H](O[C@@H]2[C@@H](O)[C@H](O[C@H]3CC[C@]4(C)[C@H]5CC=C6[C@@H]7CC(C)(C)CC[C@]7(C(=O)O)CC[C@@]6(C)[C@]5(C)CC[C@H]4C3(C)C)O[C@H](C(=O)O)[C@H]2O)[C@H](O)[C@H](O)[C@H]1O [Compound a, 3-O-[α-L-pyranrhamnose(1-3)-β-D-pyranglucuronic acid]-oleanolic acid]
[1]
  IC50: 298 µM
  COX-2/COX-1 selectivity ratio: 0.67
[2]
  IC50: 443 µM

## CC1(C)CC[C@]2(C(=O)O[C@@H]3O[C@H](CO)[C@@H](O)[C@H](O)[C@H]3O)CC[C@]3(C)C(=CC[C@@H]4[C@@]5(C)CC[C@H](O[C@@H]6O[C@H](C(=O)O)[C@@H](O)[C@H](O)[C@H]6O)C(C)(C)[C@@H]5CC[C@]43C)[C@@H]2C1 [Compound b, 3-O-(β-D-pyranglucuronic acid)-oleanolic acid-28-O-β-D-pyran glucoside]
[1]
  IC50: 294 µM
  COX-2/COX-1 selectivity ratio: 0.60
[2]
  IC50: 488 µM

## C[C@@H]1O[C@@H](O[C@@H]2[C@@H](O)[C@H](O[C@H]3CC[C@]4(C)[C@H]5CC=C6[C@@H]7CC(C)(C)CC[C@]7(C(=O)O[C@@H]7O[C@H](CO)[C@@H](O)[C@H](O)[C@H]7O)CC[C@@]6(C)[C@]5(C)CC[C@H]4C3(C)C)O[C@H](C(=O)O)[C@H]2O)[C@H](O)[C@H](O)[C@H]1O [Compound c, 3-O-[α-L-pyranrhamnose(1-3)-β-D-pyranglucuronic acid]-oleanolic acid-28-O-β-D-pyran glucoside]
[1]
  IC50: 384 µM and 349 µM
  COX-2/COX-1 selectivity ratio: 0.65 and 0.64
[2]
  IC50: 538 µM

## CCc1oc2ccccc2c1C(=O)c1cc(Br)c(O)c(Br)c1 [benzbromarone, Benzbromarone]
[3]
  serum level of uric acid: recovered to that of the normal animals
  urine uric acid excretion (24 h): recovered to that of the normal animals

## COc1cc2c(c(OC)c1OC)-c1ccc(OC)c(=O)cc1[C@@H](NC(C)=O)CC2 [colchicine, Colchicine]
[4]
  serum level of IFN-γ: inhibited IL-2, IL-1β, IL-6, and IFN-γ secretion
  serum level of IL-1β: inhibited IL-2, IL-1β, IL-6, and IFN-γ secretion
  serum level of IL-2: inhibited IL-2, IL-1β, IL-6, and IFN-γ secretion
  serum level of IL-6: inhibited IL-2, IL-1β, IL-6, and IFN-γ secretion
  serum level of IL-10: increased IL-10 secretion
[5]; Wosi 0.5, 1, 2 g/kg
  protein expression of VCAM-1 in synovial tissue (IHC, IOD): recovered to that of the normal animals
[5]; Wosi particularly at 0.5 and 2 g/kg/day
  protein expression of COX-2 in synovial tissue (IHC, IOD): recovered to that of the normal animals

## CC1(C)CC[C@]2(C(=O)O)CC[C@]3(C)C(=CC[C@@H]4[C@@]5(C)CC[C@H](O)C(C)(C)[C@@H]5CC[C@]43C)[C@@H]2C1 [oleanolic acid]
[6]
  selectivity of inhibition of cyclooxygenase-2 catalyzed prostaglandin biosynthesis: selective inhibitors of cyclooxygenase-2 catalyzed prostaglandin biosynthesis

## C[C@H]1[C@H](C)CC[C@]2(C(=O)O)CC[C@]3(C)C(=CC[C@@H]4[C@@]5(C)CC[C@H](O)C(C)(C)[C@@H]5CC[C@]43C)[C@H]12 [ursolic acid]
[6]
  selectivity of inhibition of cyclooxygenase-2 catalyzed prostaglandin biosynthesis: selective inhibitors of cyclooxygenase-2 catalyzed prostaglandin biosynthesis
